Results as given in PMC5971037, “Synthesis and evaluation of antimicrobial, antitubercular and anticancer activities of 2-(1-benzoyl-1H-benzo[d]imidazol-2-ylthio)-N-substituted acetamides” (Chemistry Central Journal, 2018).
Converted amounts (≈) assume the structure as drawn. Where two headings read alike, the source gives them in different places.

Columns and labels:
E. coli [1] = assay: Tube dilution MIC; settings: Escherichia coli, 24 h, read-out: MIC E. coli
S. aureus [2] = assay: Tube dilution MIC; settings: Staphylococcus aureus, 24 h, read-out: MIC S. aureus
B. cereus [3] = assay: Tube dilution MIC; settings: Bacillus cereus, 24 h, read-out: MIC B. cereus
S. typhi [4] = assay: Tube dilution MIC; type: cell-based; settings: Salmonella enterica, 24 h, read-out: MIC S. typhi
B. subtilis [5] = assay: Tube dilution MIC; settings: Bacillus subtilis, 24 h, read-out: MIC B. subtilis
A. niger [6] = assay: MFC by subculturing; type: cell-based
Method: (§1) The minimum bactericidal concentration (MBC) and minimum fungicidal concentration (MFC) of the synthesized benzimidazole derivatives was determined by subculturing 100 µl of culture from each tube that remained clear in MIC determination onto sterilized petri-plates containing fresh agar medium. The petri-plates were incubated and analyzed for microbial growth visually.

C. albicans [7] = assay: MFC by subculturing; type: cell-based
Method: as §1

A. niger [8] = assay: microbe, parasite or virus in culture; settings: Aspergillus niger, 168 h, read-out: MIC A. niger
[9] = test system: HCT116 (human colorectal) cell line; assay: Sulforhodamine-B (SRB) cytotoxicity assay; type: cell-based
B. subtilis [10] = assay: MBC by subculturing; type: cell-based
Method: as §1

S. typhi [11] = assay: MBC by subculturing; type: cell-based; settings: Salmonella enterica, read-out: MBC S. typhi
Method: as §1

S. aureus [12] = assay: MBC by subculturing; type: cell-based; settings: Staphylococcus aureus
Method: as §1

B. cereus [13] = assay: MBC by subculturing; type: cell-based
Method: as §1

E. coli [14] = assay: MBC by subculturing; type: cell-based; settings: Escherichia coli
Method: as §1

[15] = biological target: mycobacterial isocitrate lyase (Mycobacterium tuberculosis, UniProt P9WKK7); assay: Mycobacterial isocitrate lyase (ICL) assay; type: biochemical, M. tuberculosis H37Rv; settings: read-out: Percent inhibition of enzyme, M. ICL activity
Method: The compounds found potent in in vivo evaluation were assayed for inhibition of mycobacterial enzymes viz., isocitrate lyase, pantothenate synthetase and chorismate mutase.
Isocitrate lyase activity was assayed according to the protocol reported by Dixon and Kornberg (glyoxylate phenyl hydrazone formation) at 10 μM of the compounds.

M. tuberculosis H37Rv [16] = assay: MIC by microplate alamar blue assay; type: cell-based; settings: Mycobacterium tuberculosis, NA = no activity, read-out: MIC against M. tuberculosis H37Rv
C. albicans [17] = assay: microbe, parasite or virus in culture; settings: Candida albicans, 48 h, read-out: MIC C. albicans
[18] = test system: MCF7 (human breast cancer) cell line; assay: Sulforhodamine-B (SRB) cytotoxicity assay; type: cell-based
[19] = test system: M. tuberculosis H37Rv (NCFT/TB/537); assay: Well diffusion susceptibility test (zone of inhibition); type: cell-based; settings: Mycobacterium tuberculosis, 672 h, read-out: Diameter of zone of inhibition against H37Rv (NCFT/TB/537), wells of 8 mm, 50 µg/ml test compound, 25 µg/ml standard drug, 4 weeks, NA = no activity
M. tuberculosis H37Rv [20] = assay: Minimum lethal concentration (MLC); type: cell-based; settings: Mycobacterium tuberculosis, NA = no activity, read-out: MLC against M. tuberculosis H37Rv
[21] = In vivo LD50, ED50 and toxic dose in mice models; settings: mouse, dose that killed 50% of the mice population within the group
Method: The LD50 and ED50 were determined for the active compounds in mice models infected with Mycobacterium H37Rv (Table 4). […] Thus, ED50 of 1.34 mg/kg was considered safe for each of the compounds. It was observed that this dose was effective and safe for mice in different groups before infecting the mice models with specific TB bacteria as no mortality of any single animal was recorded.
The LD50 (lethal dose) and ED50 (optimum/effective dose) doses were determined for the active compounds in mice models infected with Mycobacterium H37Rv via ethical permission no., NCFT/EC/16/2313 assigned to Collaborative Research Group (CRG), NCFT, New Delhi, India.

[22] = Aspergillus niger, read-out: MFC A. niger
[23] = Candida albicans, read-out: MFC C. albicans
[24] = Bacillus subtilis, read-out: MBC B. subtilis
[25] = Bacillus cereus, read-out: MBC B. cereus
[26] = HCT-116, SRB assay, HCT116 cell line, read-out: IC50 HCT116

mycobacterial isocitrate lyase, sequence (P9WKK7 whole entry): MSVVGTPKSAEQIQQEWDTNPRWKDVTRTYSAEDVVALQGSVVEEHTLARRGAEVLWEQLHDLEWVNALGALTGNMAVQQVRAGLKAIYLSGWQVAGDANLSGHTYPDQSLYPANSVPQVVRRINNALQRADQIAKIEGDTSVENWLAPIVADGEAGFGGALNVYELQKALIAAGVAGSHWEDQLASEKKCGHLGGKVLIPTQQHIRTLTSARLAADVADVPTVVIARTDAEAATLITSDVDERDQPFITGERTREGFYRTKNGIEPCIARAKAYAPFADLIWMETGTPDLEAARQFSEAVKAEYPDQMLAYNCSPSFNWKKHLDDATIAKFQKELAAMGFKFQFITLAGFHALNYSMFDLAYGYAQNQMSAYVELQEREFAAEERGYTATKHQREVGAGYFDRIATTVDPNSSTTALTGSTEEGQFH

SMILES	MIC (E. coli [1])	MIC (S. aureus [2])	MIC (B. cereus [3])	MIC (S. typhi [4])	MIC (B. subtilis [5])	MFC (A. niger [6]; [22])	MFC (C. albicans [7]; [23])	MIC (A. niger [8])	MBC (B. subtilis [10]; [24])	MBC (S. typhi [11])	MBC (S. aureus [12])	MBC (B. cereus [13]; [25])	MBC (E. coli [14])	inhibition at 10 µM [15]	MIC (M. tuberculosis H37Rv [16])	MIC (C. albicans [17])	zone of inhibition at 50 µg/mL [19]	MBC (M. tuberculosis H37Rv [20])	LD50 [21]	further results
CC1=C(C(=O)O)N2C(=O)[C@@H](NC(=O)[C@H](N)c3ccc(O)cc3)[C@H]2SC1 [Cefadroxil, reference compound]	370 µM (≈ 134 µg/mL)	370 µM (≈ 134 µg/mL)	370 µM (≈ 134 µg/mL)	370 µM (≈ 134 µg/mL)	370 µM (≈ 134 µg/mL)	–	–	–	–	–	–	–	–	–	–	–	–	–	–	–
O=C(CSc1nc2ccccc2n1C(=O)c1ccccc1)Nc1ccccc1F [Compound 2, 2-(1-Benzoyl-1H-benzo[d]imidazol-2-ylthio)-N-(2-fluorophenyl)acetamide]	31 µM (≈ 12.6 µg/mL)	31 µM (≈ 12.6 µg/mL)	31 µM (≈ 12.6 µg/mL)	31 µM (≈ 12.6 µg/mL)	31 µM (≈ 12.6 µg/mL)	> 50 µg/mL	50 µg/mL (≈ 123 µM)	31 µM (≈ 12.6 µg/mL)	50 µg/mL (≈ 123 µM)	50 µg/mL (≈ 123 µM)	> 50 µg/mL	> 50 µg/mL	50 µg/mL (≈ 123 µM)	58.8%	12.5 µg/mL (≈ 30.8 µM)	15 µM (≈ 6.08 µg/mL)	> 20 mm	25 µg/mL (≈ 61.7 µM)	1.81 mg/kg	IC50 ([9]; HCT-116, read-out: IC50 HCT116): 83.9 µM; IC50 ([18]; MCF7, read-out: IC50 MCF7): 4.7 µM
O=C(CSc1nc2ccccc2n1C(=O)c1ccccc1)Nc1ccccc1Cl [Compound 4, 2-(1-Benzoyl-1H-benzo[d]imidazol-2-ylthio)-N-(2-chlorophenyl)acetamide]	30 µM (≈ 12.7 µg/mL)	30 µM (≈ 12.7 µg/mL)	30 µM (≈ 12.7 µg/mL)	30 µM (≈ 12.7 µg/mL)	30 µM (≈ 12.7 µg/mL)	> 50 µg/mL	25 µg/mL (≈ 59.3 µM)	30 µM (≈ 12.7 µg/mL)	> 50 µg/mL	50 µg/mL (≈ 119 µM)	50 µg/mL (≈ 119 µM)	> 50 µg/mL	50 µg/mL (≈ 119 µM)	48.5%	12.5 µg/mL (≈ 29.6 µM)	15 µM (≈ 6.33 µg/mL)	> 20 mm	25 µg/mL (≈ 59.3 µM)	1.96 mg/kg	IC50 ([9]; HCT-116, read-out: IC50 HCT116): 59.4 µM; IC50 ([18]; MCF7, read-out: IC50 MCF7): 35.6 µM
O=c1[nH]cc(F)c(=O)[nH]1 [Compound 5-FU, 5-fluorouracil, reference compound]	–	–	–	–	–	–	–	–	–	–	–	–	–	–	–	–	–	–	–	IC50 [9, 26]: 12.5 µM
COc1ccccc1NC(=O)CSc1nc2ccccc2n1C(=O)c1ccccc1 [Compound 17, 2-(1-Benzoyl-1H-benzo[d]imidazol-2-ylthio)-N-(2-methoxyphenyl)acetamide]	30 µM (≈ 12.5 µg/mL)	30 µM (≈ 12.5 µg/mL)	30 µM (≈ 12.5 µg/mL)	30 µM (≈ 12.5 µg/mL)	30 µM (≈ 12.5 µg/mL)	> 50 µg/mL	50 µg/mL (≈ 120 µM)	30 µM (≈ 12.5 µg/mL)	> 50 µg/mL	> 50 µg/mL	50 µg/mL (≈ 120 µM)	> 50 µg/mL	> 50 µg/mL	43.5%	12.5 µg/mL (≈ 29.9 µM)	15 µM (≈ 6.26 µg/mL)	> 20 mm	25 µg/mL (≈ 59.9 µM)	3.17 mg/kg	–
Cc1ccccc1NC(=O)CSc1nc2ccccc2n1C(=O)c1ccccc1 [Compound 16, 2-(1-Benzoyl-1H-benzo[d]imidazol-2-ylthio)-N–o-tolylacetamide]	31 µM (≈ 12.4 µg/mL)	31 µM (≈ 12.4 µg/mL)	31 µM (≈ 12.4 µg/mL)	31 µM (≈ 12.4 µg/mL)	31 µM (≈ 12.4 µg/mL)	–	–	31 µM (≈ 12.4 µg/mL)	–	50 µg/mL (≈ 125 µM)	50 µg/mL (≈ 125 µM)	–	> 50 µg/mL	–	15 µg/mL (≈ 37.4 µM)	16 µM (≈ 6.42 µg/mL)	10 mm	28 µg/mL (≈ 69.7 µM)	–	MFC (A. niger [6]; Aspergillus niger; read-out: MFC A. niger): > 50 µg/mL; MFC (C. albicans [7]; Candida albicans; read-out: MFC C. albicans): 25 µg/mL (≈ 62.3 µM); IC50 [9, 26]: 87.2 µM; MBC (B. subtilis [10]; Bacillus subtilis; read-out: MBC B. subtilis): 50 µg/mL (≈ 125 µM); MBC (B. cereus [13]; Bacillus cereus; read-out: MBC B. cereus): > 50 µg/mL; IC50 ([18]; SRB assay, MCF7 cell line, read-out: IC50 MCF7): 124 µM
OC(Cn1cncn1)(Cn1cncn1)c1ccc(F)cc1F [Fluconazole, reference compound]	–	–	–	–	–	–	–	470 µM (≈ 144 µg/mL)	–	–	–	–	–	–	–	470 µM (≈ 144 µg/mL)	–	–	–	–
